The subject of one data set is HCT-116. The experiment in a line: MTT cytotoxicity assay, HCT-116. It is filed as cell-based. The settings on record: Homo sapiens, 72 h exposure, mean ± SD. The protocol:
(§1) The newly synthesized chalcone compounds 7a–k were evaluated for their in vitro anticancer activity against three cancer cell lines—HCT-116, MCF-7 and HepG-2—according to the MTT assay method using doxorubicin as reference drug.
(§2) The in vitro anticancer activities of the selected chalcone compounds against three cancer cell lines: human colon carcinoma (HCT-116), human hepatocellular carcinoma (HEPG-2), and human breast adenocarcinoma (MCF-7) were evaluated as described with some modifications. Target tumor cells were grown to log phase in DMEM medium supplemented with 10% fetal bovine serum. After diluting to 1 × 10^5 cells mL^−1 with the medium, 100 μL of the obtained cell suspension was added to each well of 96-well culture plates. Subsequently, incubation was performed at 37 °C in 5% CO2 atmosphere for 48 h before the cytotoxicity assessment. Tested samples at preset concentrations were added to 6 wells with doxorubicin being employed as a positive reference. After 72 h exposure period, 25 μL of PBS containing 2.5 mg mL^−1 of MTT was added to each well. After 4 h, the medium was replaced by 150 μL DMSO to dissolve the purple formazan crystals produced. The absorbance at 570 nm of each well was measured with an ELISA plate reader. The data represented the mean of three independent experiments in triplicate and were expressed as means ± SD.
In general terms: Tetrazolium assays rely on reduction of a dye to a coloured formazan, in cell work by metabolically active cells.

The test system of the next data set is HepG-2. The experiment in a line: MTT cytotoxicity assay, HepG-2. In kind it is cell-based. The settings on record: Homo sapiens, HepG2, 72 h exposure, mean ± SD. The procedure: as §1, §2
In a further data set the test system is MCF-7. The data set can be described thus: MTT cytotoxicity assay, MCF-7. In kind it is cell-based. Particulars: Homo sapiens, MCF7, 72 h exposure, mean ± SD. The procedure: as §1, §2
For data set [1], the system named is HCT-116, MCF-7 and HepG-2. The experiment in a line: MTT cytotoxicity, statements across the three cell lines. It is filed as cell-based, human. Particulars: for anticancer activity in words: three cell lines, MTT; for IC50: Homo sapiens, range over HCT-116, MCF-7, HepG-2, read-out: IC50 against the three cell lines (range given). The protocol: as §1, §2
A further data set deals with T1, EGFR TK (Homo sapiens, UniProt P00533).
T1 construct: purchased Cell Signaling Technology
The experiment in a line: EGFR inhibition assay (HTScan EGFR kinase assay kit). It is filed as biochemical. Particulars: averages of three independent experiments; compounds tested at concentration of 10 μM; 400 μM ATP. The procedure: As the designed compounds had good antiproliferative activity, in vitro EGFR inhibition capability was firstly evaluated for the target cytotoxic derivatives to see whether their cytotoxicity was mediated by kinase inhibition. […]. EGFR kinase activity was assessed using HTScan EGFR kinase assay kits (Cell Signaling Technology, Danvers, MA, USA). The experiments were performed according to the manufacturer’s instructions. […] Phosphorylated substrate was captured with strapavidin-coated 96-well plates. The level of phosphorylation was monitored by anti-phosphotyrosine and europium-labeled secondary antibodies (DELFIA, Perkin-Elmer, Akron, OH, USA). The enhancement solution was added at the end of the assay and enzyme activity was measured in a Victor II 1420 microplate reader (Wallac, Boston, MA, USA) at […].

The target in another data set is T2, tubulin (Homo sapiens, UniProt P07437+P68363).
T2 construct: The HCT-116 cell line was obtained from the American Type Culture Collection; endogenous in cells; host or cells: HCT-116
The experiment in a line: Tubulin polymerization / ELISA for Tubulin Beta (TUBb) in HCT-116 cells. It is filed as cell-based. The procedure:
Tubulin is the principal component of the eukaryotic cytoskeleton and participates in several crucial cellular processes, including cell replication.
Plate cells (cells density 1.2–1.8 × 10^3 cells/well) in a volume of […] complete growth medium and […] of the tested compound per well in a 96-well plate for 18–24 h before the enzyme assay for tubulin. […] Standards or samples are then added to the appropriate microtiter plate wells with a biotin-conjugated antibody specific to TUBb. Next, avidin conjugated to horseradish peroxidase (HRP) is added to each microplate well and incubated. […] The enzyme-substrate reaction is terminated by the addition of sulphuric acid solution and the color change is measured spectrophotometrically at a wavelength of 450 ± 10 nm. The concentration of TUBb in the samples is then determined by comparing the O.D. of the samples to the standard curve.
In general terms: An ELISA detects its analyte on a solid surface through an enzyme-linked reagent.

Setting [2] is: averages of two independent experiments, read-out: Tubulin Polymerization (IC50 µM).

Values joined by “and” are separate entries in the source; they are usually repeats but may differ in a detail not shown here. Identical values can stand only once. Like-named read-outs stand apart in the source and are kept apart here.

T2 sequence (P07437 whole entry): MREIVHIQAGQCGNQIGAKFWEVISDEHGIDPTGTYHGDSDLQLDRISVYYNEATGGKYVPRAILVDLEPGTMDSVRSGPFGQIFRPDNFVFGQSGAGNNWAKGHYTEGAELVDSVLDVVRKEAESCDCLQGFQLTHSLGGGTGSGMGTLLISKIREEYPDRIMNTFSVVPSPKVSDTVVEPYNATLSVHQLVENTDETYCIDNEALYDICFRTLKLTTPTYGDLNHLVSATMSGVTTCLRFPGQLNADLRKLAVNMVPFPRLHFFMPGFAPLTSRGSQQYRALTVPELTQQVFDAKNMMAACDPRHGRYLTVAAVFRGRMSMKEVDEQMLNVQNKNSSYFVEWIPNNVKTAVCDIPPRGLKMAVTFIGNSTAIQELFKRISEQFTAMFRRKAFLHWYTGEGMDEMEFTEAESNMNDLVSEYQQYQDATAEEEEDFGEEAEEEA
T2 sequence (P68363 whole entry): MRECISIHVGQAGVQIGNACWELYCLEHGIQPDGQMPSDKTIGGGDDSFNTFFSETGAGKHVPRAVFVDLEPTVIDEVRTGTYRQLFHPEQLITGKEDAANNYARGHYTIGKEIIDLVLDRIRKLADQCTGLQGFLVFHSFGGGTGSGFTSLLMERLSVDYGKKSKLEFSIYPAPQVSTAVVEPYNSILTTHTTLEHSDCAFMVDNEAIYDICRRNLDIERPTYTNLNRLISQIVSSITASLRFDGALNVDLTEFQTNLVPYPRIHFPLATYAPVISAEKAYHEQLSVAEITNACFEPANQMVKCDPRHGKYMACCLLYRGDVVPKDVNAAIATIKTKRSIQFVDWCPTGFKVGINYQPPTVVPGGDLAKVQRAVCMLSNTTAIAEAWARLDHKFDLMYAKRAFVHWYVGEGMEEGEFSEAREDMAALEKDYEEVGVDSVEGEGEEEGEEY
T1 sequence (P00533 25-1210): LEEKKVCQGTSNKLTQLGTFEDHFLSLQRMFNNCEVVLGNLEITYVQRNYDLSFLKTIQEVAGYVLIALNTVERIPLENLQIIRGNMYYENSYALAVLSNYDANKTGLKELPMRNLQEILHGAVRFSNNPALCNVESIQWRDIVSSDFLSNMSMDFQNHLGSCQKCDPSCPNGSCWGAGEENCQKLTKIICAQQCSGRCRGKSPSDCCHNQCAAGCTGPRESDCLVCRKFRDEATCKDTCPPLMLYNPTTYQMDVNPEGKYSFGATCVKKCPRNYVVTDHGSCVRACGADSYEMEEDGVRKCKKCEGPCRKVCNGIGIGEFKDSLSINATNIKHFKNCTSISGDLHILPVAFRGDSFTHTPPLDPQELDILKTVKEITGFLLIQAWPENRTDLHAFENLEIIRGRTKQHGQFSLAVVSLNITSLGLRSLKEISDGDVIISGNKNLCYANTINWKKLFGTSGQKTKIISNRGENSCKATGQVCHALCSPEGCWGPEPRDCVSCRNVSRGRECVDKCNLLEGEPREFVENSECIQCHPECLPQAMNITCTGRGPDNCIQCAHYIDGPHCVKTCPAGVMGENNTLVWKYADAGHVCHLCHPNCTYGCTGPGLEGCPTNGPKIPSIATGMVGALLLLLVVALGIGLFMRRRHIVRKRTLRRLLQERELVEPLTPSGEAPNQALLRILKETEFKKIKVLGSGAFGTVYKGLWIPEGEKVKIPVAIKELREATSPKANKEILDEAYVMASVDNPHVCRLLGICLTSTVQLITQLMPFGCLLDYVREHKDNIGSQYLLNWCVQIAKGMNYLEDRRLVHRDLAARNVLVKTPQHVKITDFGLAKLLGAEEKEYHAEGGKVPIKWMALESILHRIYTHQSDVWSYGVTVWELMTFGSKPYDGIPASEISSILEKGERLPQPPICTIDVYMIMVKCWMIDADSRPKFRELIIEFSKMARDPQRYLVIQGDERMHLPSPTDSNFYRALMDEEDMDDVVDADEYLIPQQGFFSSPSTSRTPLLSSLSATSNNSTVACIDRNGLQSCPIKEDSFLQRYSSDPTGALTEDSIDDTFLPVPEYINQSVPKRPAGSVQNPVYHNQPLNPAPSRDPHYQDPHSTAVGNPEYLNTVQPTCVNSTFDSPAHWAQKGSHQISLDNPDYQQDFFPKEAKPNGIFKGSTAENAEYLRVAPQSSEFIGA

Compound `CCc1nnc2c(Cl)nc3ccccc3n12` [Compound 5, 4-Chloro-1-ethyl-[1,2,4]triazolo[4,3-a]quinoxaline] displayed a melting point of 158 to 160 °C. For the same compound, in the data set with HCT-116, the IC50 was found to be 236 ± 0.1 µM. Besides, the IC50 in the data set on HepG-2 amounted to 322 ± 0.15 µM. For the same compound, the IC50 in the data set with MCF-7 was found to be 246 ± 0.13 µM.

For `CCc1nnc2c(Nc3ccc(C(C)=O)cc3)nc3ccccc3n12` [Compound 6, 1-(4-((1-ethyl-[1,2,4]triazolo[4,3-a]quinoxalin-4-yl)amino)phenyl)ethan-1-one], the melting point was 235 to 237 °C. The IC50 with HCT-116 came out at 411 ± 0.21 µM. This compound also showed an IC50 in the data set with HepG-2 of 446 ± 0.2 µM. In the data set with MCF-7, this compound showed an IC50 of 410 ± 0.25 µM.

For the compound `CCc1nnc2c(Nc3ccc(C(=O)/C=C/c4ccccc4)cc3)nc3ccccc3n12` [Compound 7a, (E)-1-(4-((1-Ethyl-[1,2,4]triazolo[4,3-a]quinoxalin-4-yl)amino)phenyl)-3-phenylprop-2-en-1-one], the melting point fell in the range of 260 to 262 °C. The “anticancer activity in words” value in data set [1] is listed as “did not show significant activity”. This compound also gave an IC50 in the data set on HCT-116 of 57.49 ± 0.29 µM. This compound also showed an IC50 with HepG-2 of 105.2 ± 0.5 µM. Moreover, in the data set with MCF-7, the IC50 was 58.92 ± 0.32 µM. Also, at EGFR TK, the IC50 stood at 0.661 ± 0.00011 µM. On tubulin (setting [2]), the IC50 amounted to 77.1 ± 0.21 µM.

`CCc1nnc2c(Nc3ccc(C(=O)/C=C/c4ccccc4OC)cc3)nc3ccccc3n12` [Compound 7b, (E)-1-(4-((1-Ethyl-[1,2,4]triazolo[4,3-a]quinoxalin-4-yl)amino)phenyl)-3-(2-methoxyphenyl)prop-2-en-1-one]: the melting point lay within 264 to 266 °C. Further, in data set [1], the IC50 lay within 1.65 to 34.3 µM. The IC50 with HCT-116 turned out to be 25.6 ± 0.03 µM. For the same compound, the IC50 in the data set with HepG-2 amounted to 30.72 ± 0.12 µM. In the data set on MCF-7, this compound registered an IC50 of 24.04 ± 0.12 µM. On EGFR TK, the IC50 is 0.127 to 0.136 µM and 0.127 µM. In addition, the IC50 at tubulin (setting [2]) worked out at 18.1 ± 0.3 µM.

In the case of `CCc1nnc2c(Nc3ccc(C(=O)/C=C/c4ccccc4O)cc3)nc3ccccc3n12` [Compound 7c, (E)-1-(4-((1-Ethyl-[1,2,4]triazolo[4,3-a]quinoxalin-4-yl)amino)phenyl)-3-(2-hydroxyphenyl)prop-2-en-1-one], the melting point fell in the range of 261 to 263 °C. For the same compound, in the data set on HCT-116, the IC50 turned out to be 19.8 ± 0.23 µM. This compound also gave an IC50 in the data set with HepG-2 of 17.32 ± 0.12 µM. The same compound had an IC50 with MCF-7 of 22.17 ± 0.11 µM. For the same compound, the IC50 against EGFR TK was 0.127 to 0.136 µM and 0.136 µM. The IC50 at tubulin (setting [2]) is 43.4 ± 0.01 µM.

Regarding `CCc1nnc2c(Nc3ccc(C(=O)/C=C/c4ccc(C)cc4)cc3)nc3ccccc3n12` [Compound 7d, (E)-1-(4-((1-Ethyl-[1,2,4]triazolo[4,3-a]quinoxalin-4-yl)amino)phenyl)-3-(p-tolyl)prop-2-en-1-one], the melting point is 247 to 249 °C. Besides, the “anticancer activity in words” value in data set [1] is “low activity”. Further, in the data set on HCT-116, the IC50 was more than 100 µM. The compound also yielded an IC50 in the data set on HepG-2 of more than 100 µM. The IC50 in the data set with MCF-7 worked out at 93.4 ± 0.14 µM. Besides, the IC50 at EGFR TK was more than 100 µM.

As for `CCc1nnc2c(Nc3ccc(C(=O)/C=C/c4ccc(OC)cc4)cc3)nc3ccccc3n12` [Compound 7e, (E)-1-(4-((1-Ethyl-[1,2,4]triazolo[4,3-a]quinoxalin-4-yl)amino)phenyl)-3-(4-methoxyphenyl)prop-2-en-1-one], the IC50 in data set [1] was 1.65 to 34.3 µM; in the data set on HCT-116, 9.57 ± 0.11 µM; in the data set with HepG-2, 34.28 ± 0.14 µM; in the data set on MCF-7 it was 8.23 ± 0.25 µM; against EGFR TK, 0.083 ± 0.04 µM; at tubulin (setting [2]) it was 14.7 ± 0.11 µM.

As for `CCc1nnc2c(Nc3ccc(C(=O)/C=C/c4ccc(O)cc4)cc3)nc3ccccc3n12` [Compound 7f, (E)-1-(4-((1-Ethyl-[1,2,4]triazolo[4,3-a]quinoxalin-4-yl)amino)phenyl)-3-(4-hydroxyphenyl)prop-2-en-1-one], the melting point fell in the range of 253 to 255 °C. In addition, in the data set with HCT-116, the IC50 came out at 18.1 ± 0.15 µM. Further, the IC50 in the data set with HepG-2 is more than 100 µM. Besides, in the data set with MCF-7, the IC50 was more than 100 µM. The IC50 against EGFR TK was more than 50 µM. At tubulin (setting [2]), the IC50 was more than 100 µM.

For the compound `CCc1nnc2c(Nc3ccc(C(=O)/C=C/c4cc(OC)c(OC)c(OC)c4)cc3)nc3ccccc3n12` [Compound 7g, (E)-1-(4-((1-Ethyl-[1,2,4]triazolo[4,3-a]quinoxalin-4-yl)amino)phenyl)-3-(3,4,5-trimethoxyphenyl)prop-2-en-1-one], the IC50 in data set [1] was 1.65 to 34.3 µM; with HCT-116, 3.61 ± 0.18 µM; with HepG-2 it was 8.58 ± 0.06 µM; with MCF-7 it was 1.65 ± 0.13 µM; at EGFR TK, 0.039 µM; on tubulin (abstract text, read-out: antitubulin polymerization activity (abstract)), 8.4 µM. In addition, the IC50 at tubulin (setting [2]) is 8.84 ± 0.02 µM.

`CCc1nnc2c(Nc3ccc(C(=O)/C=C/c4ccc([N+](=O)[O-])cc4)cc3)nc3ccccc3n12` [Compound 7h, (E)-1-(4-((1-Ethyl-[1,2,4]triazolo[4,3-a]quinoxalin-4-yl)amino)phenyl)-3-(4-nitrophenyl)prop-2-en-1-one] returned a melting point of 260 to 262 °C. In addition, the IC50 with HCT-116 was more than 100 µM. The compound further came in with an IC50 in the data set on HepG-2 of more than 100 µM. Moreover, the IC50 in the data set on MCF-7 is more than 100 µM. This compound gave an IC50 at EGFR TK of more than 100 µM. For the same compound, on tubulin (setting [2]), the IC50 was more than 100 µM.

Regarding `CCc1nnc2c(Nc3ccc(C(=O)/C=C/c4ccc(Cl)cc4)cc3)nc3ccccc3n12` [Compound 7i, (E)-3-(4-Chlorophenyl)-1-(4-((1-ethyl-[1,2,4]triazolo[4,3-a]quinoxalin-4-yl)amino)phenyl)prop-2-en-1-one], the melting point lay in the range of 255 to 257 °C. Also, in the data set with HCT-116, the IC50 was more than 100 µM. In the data set with HepG-2, this compound came in with an IC50 of more than 100 µM. The IC50 in the data set on MCF-7 was more than 100 µM. At EGFR TK, the IC50 was more than 100 µM. Moreover, on tubulin (setting [2]), the IC50 was more than 100 µM.

In turn, `CCc1nnc2c(Nc3ccc(C(=O)/C=C/c4ccc(Cl)cc4Cl)cc3)nc3ccccc3n12` [Compound 7j, (E)-3-(2,4-Dichlorophenyl)-1-(4-((1-ethyl-[1,2,4]triazolo[4,3-a]quinoxalin-4-yl)amino)phenyl)prop-2-en-1-one] gave a melting point of 250 to 252 °C. The IC50 with HCT-116 was more than 100 µM. In the data set on HepG-2, the IC50 was more than 100 µM. This compound returned an IC50 in the data set on MCF-7 of more than 100 µM. On EGFR TK, the IC50 was more than 100 µM. For the same compound, on tubulin (setting [2]), the IC50 is more than 100 µM.

For the compound `CCc1nnc2c(Nc3ccc(C(=O)/C=C/c4c(Cl)cccc4Cl)cc3)nc3ccccc3n12` [Compound 7k, (E)-3-(2,6-Dichlorophenyl)-1-(4-((1-ethyl-[1,2,4]triazolo[4,3-a]quinoxalin-4-yl)amino)phenyl)prop-2-en-1-one], the melting point is 250 to 252 °C. Besides, the IC50 in the data set with HCT-116 was determined as 19.7 ± 0.25 µM. The compound also showed an IC50 with HepG-2 of more than 100 µM. For the same compound, in the data set with MCF-7, the IC50 was more than 100 µM. This compound came in with an IC50 against EGFR TK of more than 100 µM. The IC50 on tubulin (setting [2]) is more than 100 µM.

As to `COc1cccc2c1C(=O)c1c(O)c3c(c(O)c1C2=O)C[C@@](O)(C(=O)CO)C[C@@H]3O[C@H]1C[C@H](N)[C@H](O)[C@H](C)O1` [Doxorubicin, reference compound], the figures for the IC50 in the data set with HCT-116, in the data set on HepG-2 and in the data set on MCF-7 were 1.55 ± 0.03 µM, 0.22 ± 0.01 µM and 0.27 ± 0.08 µM, respectively.

One may read the melting point as the temperature, or range, at which the solid turns liquid.
